Measurements taken from the OligoGym collection.
HELM strings list units from the 5' end as sugar, base in round brackets, then linkage (d deoxyribose, r ribose, m 2'-O-methyl, p phosphodiester). Strings are as the collection lists them; they lack the last nucleoside at the 3' end of the tested compound. [moe] = 2'-O-(2-methoxyethyl) (MOE); [sp] = phosphorothioate linkage; [m5C] = 5-methylcytosine

Target: UBE3A-ATS
Assay: mouse, dose not given
Conditions: ASO

| Substance | 3 h FOB score [score 0-7] |
| --- | --- |
| RNA1{[moe](G)[sp].[moe](T)p.[moe](A)p.[moe](G)p.[moe](G)p.d(A)[sp].d(G)[sp].d(A)[sp].d(T)[sp].d(A)[sp].d(G)[sp].d(G)[sp].d([m5C])[sp].d(A)[sp].d(G)[sp].[moe](T)p.[moe](G)p.[moe]([m5C])[sp].[moe](A)}$$$$ (last 3' nucleoside missing) | 5 |
| RNA1{[moe](G)[sp].[moe](T)p.[moe](A)p.[moe](G)p.[moe]([m5C])p.d(T)[sp].d(A)[sp].d(T)[sp].d(A)[sp].d(G)[sp].d(G)[sp].d(T)[sp].d(G)[sp].d(T)[sp].d([m5C])[sp].[moe](A)p.[moe]([m5C])p.[moe](A)[sp].[moe](T)}$$$$ (last 3' nucleoside missing) | 6.2 |
| RNA1{[moe](G)[sp].[moe](T)p.[moe](A)p.[moe](T)p.[moe](A)p.d(T)[sp].d(A)[sp].d([m5C])[sp].d(T)[sp].d([m5C])[sp].d([m5C])[sp].d(A)[sp].d(G)[sp].d(G)[sp].d(T)[sp].[moe](T)p.[moe](G)p.[moe](T)[sp].[moe](G)}$$$$ (last 3' nucleoside missing) | 5.2 |
| RNA1{[moe](G)[sp].[moe](T)p.[moe](A)p.[moe](T)p.[moe](A)p.d(T)[sp].d(T)[sp].d(A)[sp].d(G)[sp].d(T)[sp].d([m5C])[sp].d(T)[sp].d(A)[sp].d(A)[sp].d(G)[sp].[moe](G)p.[moe]([m5C])p.[moe](A)[sp].[moe](G)}$$$$ (last 3' nucleoside missing) | 3.7 |
| RNA1{[moe](G)[sp].[moe](T)p.[moe](A)p.[moe](T)p.[moe](A)p.d(T)[sp].d(T)[sp].d(G)[sp].d(T)[sp].d(A)[sp].d(G)[sp].d([m5C])[sp].d(T)[sp].d(T)[sp].d(T)[sp].[moe](T)p.[moe]([m5C])p.[moe](T)[sp].[moe](A)}$$$$ (last 3' nucleoside missing) | 6.2 |
| RNA1{[moe](G)[sp].[moe](T)p.[moe](A)p.[moe](T)p.[moe](G)p.d(G)[sp].d(T)[sp].d(A)[sp].d(T)[sp].d([m5C])[sp].d(T)[sp].d(T)[sp].d(G)[sp].d([m5C])[sp].d(A)[sp].[moe](G)p.[moe](T)p.[moe](A)[sp].[moe](G)}$$$$ (last 3' nucleoside missing) | 5.2 |
| RNA1{[moe](G)[sp].[moe](T)p.[moe](A)p.[moe](T)p.[moe](T)p.d(G)[sp].d(A)[sp].d([m5C])[sp].d(A)[sp].d([m5C])[sp].d([m5C])[sp].d(T)[sp].d([m5C])[sp].d([m5C])[sp].d(A)[sp].[moe](A)p.[moe]([m5C])p.[moe](T)[sp].[moe](G)}$$$$ (last 3' nucleoside missing) | 2 |
| RNA1{[moe](G)[sp].[moe](T)p.[moe](A)p.[moe](T)p.[moe]([m5C])p.d(A)[sp].d(G)[sp].d(G)[sp].d([m5C])[sp].d(A)[sp].d(A)[sp].d([m5C])[sp].d(A)[sp].d(G)[sp].d(A)[sp].[moe](A)p.[moe](T)p.[moe]([m5C])[sp].[moe](T)}$$$$ (last 3' nucleoside missing) | 4.3 |
| RNA1{[moe](G)[sp].[moe](T)p.[moe](A)p.[moe]([m5C])p.[moe](A)p.d(A)[sp].d(T)[sp].d(G)[sp].d([m5C])[sp].d(A)[sp].d(T)[sp].d(G)[sp].d(T)[sp].d(G)[sp].d(G)[sp].[moe](G)p.[moe]([m5C])p.[moe]([m5C])[sp].[moe](T)}$$$$ (last 3' nucleoside missing) | 4 |
| RNA1{[moe](G)[sp].[moe](T)p.[moe](A)p.[moe]([m5C])p.[moe](A)p.d([m5C])[sp].d(T)[sp].d(A)[sp].d(T)[sp].d(T)[sp].d(G)[sp].d(T)[sp].d(T)[sp].d(T)[sp].d(T)[sp].[moe](G)p.[moe](A)p.[moe](T)[sp].[moe](A)}$$$$ (last 3' nucleoside missing) | 2.5 |
| RNA1{[moe](G)[sp].[moe](T)p.[moe](A)p.[moe]([m5C])p.[moe](T)p.d([m5C])[sp].d(A)[sp].d(T)[sp].d([m5C])[sp].d(A)[sp].d(T)[sp].d(G)[sp].d(A)[sp].d(T)[sp].d([m5C])[sp].[moe](T)p.[moe](T)p.[moe](G)[sp].[moe](G)}$$$$ (last 3' nucleoside missing) | 2 |
| RNA1{[moe](G)[sp].[moe](T)p.[moe](G)p.[moe](A)[sp].d(G)[sp].d([m5C])[sp].d(T)[sp].d(A)[sp].d(T)[sp].d([m5C])[sp].d(T)[sp].d(G)[sp].[moe](T)p.[moe](A)p.[moe]([m5C])p.[moe](A)[sp].[moe](A)}$$$$ (last 3' nucleoside missing) | 1.7 |
| RNA1{[moe](G)[sp].[moe](T)p.[moe](G)p.[moe](A)p.[moe](G)[sp].d([m5C])[sp].d(T)[sp].d(A)[sp].d(T)[sp].d([m5C])[sp].d(T)[sp].d(G)[sp].d(T)[sp].[moe](A)p.[moe]([m5C])p.[moe](A)[sp].[moe](A)}$$$$ (last 3' nucleoside missing) | 1 |
| RNA1{[moe](G)[sp].[moe](T)p.[moe](G)p.[moe](A)p.[moe](G)p.[moe]([m5C])[sp].d(T)[sp].d(A)[sp].d(T)[sp].d([m5C])[sp].d(T)[sp].d(G)[sp].d(T)[sp].d(A)[sp].[moe]([m5C])p.[moe](A)[sp].[moe](A)}$$$$ (last 3' nucleoside missing) | 4.7 |
| RNA1{[moe](G)[sp].[moe](T)p.[moe](G)p.[moe](A)p.[moe](G)p.[moe]([m5C])p.d(T)[sp].d(A)[sp].d(T)[sp].d([m5C])[sp].d(T)[sp].d(G)[sp].d(T)[sp].d(A)[sp].d([m5C])[sp].d(A)[sp].[moe](A)p.[moe](A)[sp].[moe](A)}$$$$ (last 3' nucleoside missing) | 1.3 |
| RNA1{[moe](G)[sp].[moe](T)p.[moe](G)p.[moe](A)p.[moe](G)p.d([m5C])[sp].d(T)[sp].d(A)[sp].d(T)[sp].d([m5C])[sp].d(T)[sp].d(G)[sp].d(T)[sp].d(A)[sp].d([m5C])[sp].[moe](A)p.[moe](A)p.[moe](A)[sp].[moe](A)}$$$$ (last 3' nucleoside missing) | 3.2 |
| RNA1{[moe](G)[sp].[moe](T)p.[moe](G)p.[moe](A)p.[moe](G)p.d([m5C])[sp].d(T)[sp].d(T)[sp].d(T)[sp].d(A)[sp].d([m5C])[sp].d(T)[sp].d([m5C])[sp].d(T)[sp].d(G)[sp].[moe]([m5C])p.[moe](A)p.[moe](A)[sp].[moe](T)}$$$$ (last 3' nucleoside missing) | 1 |
| RNA1{[moe](G)[sp].[moe](T)p.[moe](G)p.[moe](A)p.d(G)[sp].d([m5C])[sp].d(T)[sp].d(A)[sp].d(T)[sp].d([m5C])[sp].d(T)[sp].d(G)[sp].d(T)[sp].d(A)[sp].[moe]([m5C])p.[moe](A)p.[moe](A)p.[moe](A)[sp].[moe](A)}$$$$ (last 3' nucleoside missing) | 4 |
| RNA1{[moe](G)[sp].[moe](T)p.[moe](G)p.[moe](G)p.[moe](T)p.d(T)[sp].d(G)[sp].d([m5C])[sp].d([m5C])[sp].d(T)[sp].d(T)[sp].d(A)[sp].d(G)[sp].d(T)[sp].d(A)[sp].[moe](T)p.[moe](T)p.[moe](A)[sp].[moe]([m5C])}$$$$ (last 3' nucleoside missing) | 2.2 |
| RNA1{[moe](G)[sp].[moe](T)p.[moe](G)p.[moe](G)p.[moe](T)p.d(T)[sp].d(T)[sp].d([m5C])[sp].d([m5C])[sp].d(A)[sp].d(G)[sp].d([m5C])[sp].d(A)[sp].d(G)[sp].d(G)[sp].[moe](G)p.[moe](T)p.[moe](G)[sp].[moe](T)}$$$$ (last 3' nucleoside missing) | 5.8 |
| RNA1{[moe](G)[sp].[moe](T)p.[moe](G)p.[moe](G)p.[moe](T)p.d([m5C])[sp].d(A)[sp].d(G)[sp].d(A)[sp].d(T)[sp].d(T)[sp].d([m5C])[sp].d([m5C])[sp].d(T)[sp].d(A)[sp].[moe](A)p.[moe](A)p.[moe](T)[sp].[moe](A)}$$$$ (last 3' nucleoside missing) | 0 |
| RNA1{[moe](G)[sp].[moe](T)p.[moe](G)p.[moe](T)p.[moe](G)p.[moe](T)p.d(T)[sp].d(T)[sp].d(T)[sp].d(T)[sp].d([m5C])[sp].d([m5C])[sp].d(A)[sp].d(T)[sp].d(T)[sp].d(T)[sp].[moe](T)p.[moe](T)[sp].[moe]([m5C])}$$$$ (last 3' nucleoside missing) | 0 |
| RNA1{[moe](G)[sp].[moe](T)p.[moe](G)p.[moe](T)p.[moe](G)p.d(G)[sp].d(A)[sp].d(T)[sp].d(G)[sp].d(G)[sp].d(T)[sp].d(A)[sp].d(T)[sp].d([m5C])[sp].d([m5C])[sp].[moe](T)p.[moe](G)p.[moe](G)[sp].[moe](T)}$$$$ (last 3' nucleoside missing) | 5.5 |
| RNA1{[moe](G)[sp].[moe](T)p.[moe](G)p.[moe](T)p.[moe](G)p.d(T)[sp].d(G)[sp].d([m5C])[sp].d(A)[sp].d(A)[sp].d(T)[sp].d(A)[sp].d(G)[sp].d([m5C])[sp].d([m5C])[sp].[moe](T)p.[moe](A)p.[moe](A)[sp].[moe](A)}$$$$ (last 3' nucleoside missing) | 3.5 |
| RNA1{[moe](G)[sp].[moe](T)p.[moe](G)p.[moe](T)p.[moe](G)p.d(T)[sp].d(T)[sp].d(T)[sp].d(T)[sp].d(T)[sp].d([m5C])[sp].d([m5C])[sp].d(A)[sp].d(T)[sp].d(T)[sp].[moe](T)p.[moe](T)p.[moe](T)[sp].[moe]([m5C])}$$$$ (last 3' nucleoside missing) | 0 |
| RNA1{[moe](G)[sp].[moe](T)p.[moe](G)p.[moe](T)p.[moe](G)p.d([m5C])[sp].d([m5C])[sp].d(A)[sp].d(T)[sp].d(A)[sp].d(G)[sp].d(G)[sp].d(T)[sp].d(T)[sp].d(T)[sp].[moe]([m5C])p.[moe](A)p.[moe](G)[sp].[moe](G)}$$$$ (last 3' nucleoside missing) | 2.8 |
| RNA1{[moe](G)[sp].[moe](T)p.[moe](G)p.[moe](T)p.[moe](T)p.[moe](T)p.d(T)[sp].d(T)[sp].d([m5C])[sp].d([m5C])[sp].d(A)[sp].d(T)[sp].d(T)[sp].d(T)[sp].d(T)[sp].d(T)[sp].[moe]([m5C])p.[moe](T)[sp].[moe]([m5C])}$$$$ (last 3' nucleoside missing) | 0 |
